Our source for the IC50 values is publication PMC8217813, “Bridging Computational Vaccinology and Vaccine Development Through Systematic Identification, Characterization, and Downselection of Conserved and Variable Circumsporozoite Protein CD4 T Cell Epitopes From Diverse Plasmodium falciparum Strains” (Frontiers in Immunology, 2021).

Peptide text beside a SMILES is read from it.

In one test the target is T1, HLA A*0201 (Homo sapiens, UniProt P04439, D140Y/D185E/D98H/E176V/E277Q/G131W/G231S/I119V/I121R/I166T/I218V/L300P/L318F/N151K/N90K/P208A/P217A/Q86G/Q94H/R138H/R169H/T345S).
T1 construct: Pure Protein, LLC (ran the assay)
In words: biochemical. The class given is binding.

Another test addresses T2, HLA A*2402 (Homo sapiens, UniProt P04439, D101N/D140Y/D185E/E176V/E190D/F33S/G103R/G107R/I119L/I121M/I306V/K335N/L105A/L180Q/L300P/N151K/N90K/Q86E/Q94H/R106L/R138H/R89G/T104I/T345S/V100E/W191G/Y123F).
T2 construct: Pure Protein, LLC (ran the assay)
Briefly: In vitro class I HLA binding competition assay (fluorescence polarization). Conditions: allele A2402; cell-free competition with fluorescently labeled control peptide, fluorescence polarization at 72 hours. The method, then: The cell-free class I HLA binding assay in use at Pure Protein, LLC allows for in vitro quantification of peptide-HLA binding affinity in a competition format. In this assay, a fluorescently labeled, high binding, control peptide is loaded onto 384-well ½-area plates along with unlabeled experimental peptides. To remove endogenous peptides and render the HLA A and B molecules receptive to binding, HLA is heated at 53°C for 15 minutes and immediately added to the assay. The mixture is then allowed to stand for three days. […] Binding of experimental peptides is expressed as the percent inhibition of the labeled control peptide (experimental fluorescence / control fluorescence, multiplied by 100). The percent inhibition values for each experimental peptide (across a range of molar concentrations) are used to calculate the concentration which inhibits 50% of the labeled control peptide’s specific binding. This value is referred to as the peptide’s IC50.

In another test the target is T3, HLA B*0702 (Homo sapiens, UniProt P01889).
T3 construct: Pure Protein, LLC (ran the assay)
Briefly: biochemical. It counts as binding.

A further test concerns the target HLA B*4402 (Homo sapiens, UniProt P01889, A223V/A65T/A93T/A95T/D201E/D98Y/E176V/E187L/E204Q/E69K/G107R/H137Y/K202T/L105A/L119I/N104T/N87E/Q56L/Q94N/R106L/R155S/R180D/S101N/S121R/S35A/S48T/T118I/V36M/W191S/Y140D/Y91S). In words: In vitro class I HLA binding competition assay (fluorescence polarization). Conditions: allele B4402; cell-free competition with fluorescently labeled control peptide, fluorescence polarization at 72 hours. As to the method:
The cell-free class I HLA binding assay in use at Pure Protein, LLC allows for in vitro quantification of peptide-HLA binding affinity in a competition format. In this assay, a fluorescently labeled, high binding, control peptide is loaded onto 384-well ½-area plates along with unlabeled experimental peptides. To remove endogenous peptides and render the HLA A and B molecules receptive to binding, HLA is heated at 53°C for 15 minutes and immediately added to the assay. The mixture is then allowed to stand for three days. Once the mixture has reached steady equilibrium (at 72 hours), displacement of the high binding control peptide is measured through Fluorescence Polarization. Binding of experimental peptides is expressed as the percent inhibition of the labeled control peptide (experimental fluorescence / control fluorescence, multiplied by 100). The percent inhibition values for each experimental peptide (across a range of molar concentrations) are used to calculate the concentration which inhibits 50% of the labeled control peptide’s specific binding. This value is referred to as the peptide’s IC50.

As for `CC[C@H](C)[C@H](NC(=O)[C@H](CCCCN)NC(=O)[C@H](CCCCN)NC(=O)[C@H](CC(C)C)NC(=O)[C@@H](N)Cc1ccc(O)cc1)C(=O)N[C@@H](CCC(N)=O)C(=O)N[C@@H](CC(N)=O)C(=O)N[C@@H](CO)C(=O)N[C@@H](CC(C)C)C(=O)O` [Cluster 319_ICS2] (H-YLKKIQNSL-OH), the results for the IC50 against HLA A*0201, at HLA A*2402 and on HLA B*0702 were 2.18 µM, 11.2 µM and 9.2 µM, respectively.
As to `CC[C@H](C)[C@H](N)C(=O)N[C@@H](CCC(N)=O)C(=O)N[C@@H](CC(N)=O)C(=O)N[C@@H](CO)C(=O)N[C@@H](CC(C)C)C(=O)N[C@@H](CO)C(=O)N[C@H](C(=O)N[C@@H](CCC(=O)O)C(=O)N[C@@H](Cc1c[nH]c2ccccc12)C(=O)O)[C@@H](C)O` [Cluster 323_3D7] (H-IQNSLSTEW-OH), the IC50 (commonly the concentration that gives 50% inhibition) on HLA A*2402 came out at 21.3 µM; at HLA B*4402 it was 136 µM.
